From publication PMC9962735, “Synthesis and Cytotoxic Activity of the Derivatives of N-(Purin-6-yl)aminopolymethylene Carboxylic Acids and Related Compounds” (Molecules, 2023)

Experiments:
MDA-MB-231 cells = assay: Cell cycle analysis by flow cytometry (propidium iodide), MDA-MB-231; format: cell-based, human; settings: 24 h; for Cell proliferation index (%) / Number of cells (%) in cell cycle phase G0/G1 / Number of cells (%) in cell cycle phase G2M / Number of cells (%) in cell cycle phase S: M ± SD (n = 3)
Experimental: (§1) To study the potential cytostatic effect of compound 1d, we chose the method of cell cycle analysis using flow cytometry by DNA staining with propidium iodide.
(§2) To analyze possible effects on the cell cycle, we tested three concentrations of compound 1d, which were close to CC50 calculated on the basis of viability assessment data (MTT assay).
(§3) Cell cycle analysis was performed by flow cytometry by staining DNA with propidium iodide (PI). For this, cells were seeded into 6-well plates: 2 × 10^5 COLO201 cells per well and 1.2 × 10^5 MDA-MB-231 cells per well. […] The final concentration of DMSO in the culture medium was 0.1%; an equivalent volume was added to the control cells. The plates were incubated for 24 h in a CO2 incubator. Then, cells were detached from the plastic surface using TrypLE, washed with PBS, and fixed with 70% ethanol. Next, the cells were incubated for 1 h in the dark at 4 °C, then sedimented by centrifugation at 184× g for 10 min, and washed twice with PBS. PBS (0.3 mL) containing 0.1% Triton X-100, 1 µg/mL PI, and 0.2 mg/mL RNAse A was added to the pellet, incubated for 30 min at room temperature in the dark, and analyzed on a CytoFlex flow cytometer (Beckman Coulter, Brea, CA, USA).
(§4) The cell population in the test sample was found and gated on forward versus side scatter (FSC-A vs. SSC-A). Next, doublets were discriminated and removed via PI signal height versus PI signal area (PI-H vs. PI-A). For cell cycle phases analysis, PI-A was plotted against number of events (number of cells) (PI-A vs. Count).
(§5) The flow cytometry data were processed using the Kaluza Analysis 2.1 software (Beckman Coulter, Brea, CA, USA). Percentages of cell populations distributed in the various phases of the cell cycle (sub-G1, G0/G1, S, and G2M) were calculated. The result was considered significant if the coefficient of variation (CV) was less than 6.

COLO201 cells = assay: Cell cycle analysis by flow cytometry (propidium iodide), COLO201; format: cell-based, human; settings: for Cell proliferation index (%) / Number of cells (%) in cell cycle phase G0/G1 / Number of cells (%) in cell cycle phase G2M / Number of cells (%) in cell cycle phase S: 24 h, M ± SD (n = 3)
Experimental: as §1, §2, §3, §4, §5

In the case of `CC1COc2c(ccc(F)c2F)N1C(=O)CCCCCCCCCCNc1ncnc2[nH]cnc12` (stereo not drawn) [Compound 1d], the “Cell proliferation index (%)” value (MDA-MB-231 cells; MDA-MB-231, 10×10–6 M) is reported as 39.08%, the “Number of cells (%) in cell cycle phase G0/G1” value (MDA-MB-231 cells; MDA-MB-231, 10×10–6 M) is reported as 60.92% and the “Number of cells (%) in cell cycle phase G2M” value (MDA-MB-231 cells; MDA-MB-231, 10×10–6 M) is reported as 13.74%. For the same compound, the “Number of cells (%) in cell cycle phase S” value (MDA-MB-231 cells; MDA-MB-231, 10×10–6 M) was 25.33%, the “Cell proliferation index (%)” value (MDA-MB-231 cells; MDA-MB-231, 20×10–6 M) was 37.57% and the “Number of cells (%) in cell cycle phase G0/G1” value (MDA-MB-231 cells; MDA-MB-231, 20×10–6 M) was 62.13%. For the same compound, the “Number of cells (%) in cell cycle phase G2M” value (MDA-MB-231 cells; MDA-MB-231, 20×10–6 M) was 17.05%, the “Number of cells (%) in cell cycle phase S” value (MDA-MB-231 cells; MDA-MB-231, 20×10–6 M) was 20.52% and the “Cell proliferation index (%)” value (MDA-MB-231 cells; MDA-MB-231, 30×10–6 M) was 40.63%. The “Number of cells (%) in cell cycle phase G0/G1” value (MDA-MB-231 cells; MDA-MB-231, 30×10–6 M) was 59.37%, the “Number of cells (%) in cell cycle phase G2M” value (MDA-MB-231 cells; MDA-MB-231, 30×10–6 M) was 27.49% and the “Number of cells (%) in cell cycle phase S” value (MDA-MB-231 cells; MDA-MB-231, 30×10–6 M) was 13.13%. The “cell cycle arrest phase” value (MDA-MB-231 cells; MDA-MB-231, entire range of concentrations studied) was “arrest of the cell cycle in the G0/G1 phase”, the “Cell proliferation index (%)” value (COLO201 cells; COLO201, 0.9×10–6 M) was 37.05% and the “Number of cells (%) in cell cycle phase G0/G1” value (COLO201 cells; COLO201, 0.9×10–6 M) was 62.95%. The “Number of cells (%) in cell cycle phase G2M” value (COLO201 cells; COLO201, 0.9×10–6 M) was 15.70%, the “Number of cells (%) in cell cycle phase S” value (COLO201 cells; COLO201, 0.9×10–6 M) was 21.35% and the “Cell proliferation index (%)” value (COLO201 cells; COLO201, 1×10–6 M) was 36.78±0.29%. The “Number of cells (%) in cell cycle phase G0/G1” value (COLO201 cells; COLO201, 1×10–6 M) was 63.21%, the “Number of cells (%) in cell cycle phase G2M” value (COLO201 cells; COLO201, 1×10–6 M) was 15.41±0.74% and the “Number of cells (%) in cell cycle phase S” value (COLO201 cells; COLO201, 1×10–6 M) was 21.38%. For the same compound, the “Cell proliferation index (%)” value (COLO201 cells; COLO201, 2×10–6 M) was 35.35%, the “Number of cells (%) in cell cycle phase G0/G1” value (COLO201 cells; COLO201, 2×10–6 M) was 64.60% and the “Number of cells (%) in cell cycle phase G2M” value (COLO201 cells; COLO201, 2×10–6 M) was 16.84%. For the same compound, the “Number of cells (%) in cell cycle phase S” value (COLO201 cells; COLO201, 2×10–6 M) was 18.51%, the “cell cycle arrest phase” value (COLO201 cells; COLO201, concentrations close to CC50, 24 h) was “cell cycle arrest occurred in the G2/M phase” and the cell proliferation index (COLO201 cells; COLO201, concentrations close to CC50, 24 h, range over the concentrations) was 35–37%.
